Data as given in US6790866B2, “Sulfonamide and carboxamide derivatives and drugs containing the same as the active ingredient” (Ono Pharmaceutical Co., Ltd., priority 1996, dated 2004).

These compounds were tested against T1, prostanoid receptor subtype (mouse EP1) (Mus musculus, UniProt P35375) (assay: Binding assay using expression cell of prostanoid receptor subtype (3H-PGE2 competition, CHO cell membrane fraction)). Conditions: membrane fraction of CHO cell expressing mouse EP1; 3H-PGE2 2.5 nM; Ki=IC50/(1+([C]/Kd)); read-out: dissociation constant Ki.
T1 construct: expressed in transfected cells; host or cells: CHO cells (membrane fraction)
T1 sequence (P35375 1-405): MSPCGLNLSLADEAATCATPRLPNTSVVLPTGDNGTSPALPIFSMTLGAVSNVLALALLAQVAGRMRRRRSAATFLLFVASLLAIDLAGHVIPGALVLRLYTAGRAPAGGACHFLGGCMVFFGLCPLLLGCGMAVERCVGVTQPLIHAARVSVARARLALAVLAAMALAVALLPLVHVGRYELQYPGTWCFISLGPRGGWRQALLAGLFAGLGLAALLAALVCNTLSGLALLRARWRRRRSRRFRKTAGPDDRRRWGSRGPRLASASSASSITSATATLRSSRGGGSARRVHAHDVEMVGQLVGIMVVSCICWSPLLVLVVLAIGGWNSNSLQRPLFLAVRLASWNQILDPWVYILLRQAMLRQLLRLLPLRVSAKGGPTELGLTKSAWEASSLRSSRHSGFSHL
Protocol: (i) Binding Assay Using Expression Cell of Prostanoid Receptor Subtype
The preparation of membrane fraction was carried out according to the method of Sugimoto et al (J. Biol. Chem. 267, 6463-6466 (1992)), using expression CHO cell of prostanoid receptor subtype (mouse EP1).
The standard assay mixture contained membrane fraction (0.5 mg/ml), ^3H-PGE2 in a final volume of 200 μl was incubated for 1 hour at room temperature. The reaction was terminated by addition of 3 ml of ice-cold buffer. The mixture was rapidly filtered through a glass filter (GF/B). The radioactivity associated with the filter was measured by liquid scintillation counting.
Kd and Bmax values were determined from Scratchard plots (Ann. N.Y. Acad. Sci. 51, 660 (1949)). Non-specific binding was calculated as the bond in the presence of an excess (2.5 μM) of unlabeled PGE2. In the experiment for competition of specific ^3H-PGE2 was added at a concentration of 2.5 nM and the compound of the present invention was added at a various concentration. The following buffer was used in all reaction.
Buffer: potassium phosphate (pH6.0, 10 mM), EDTA (1 mM), MgCl2 (10 mM), NaCl (0.1M).
The dissociation constant Ki (μM) of each compound was calculated by the following equation.
For CC(C)N(c1ccc(C(F)(F)F)cc1N(C)Cc1ccc(C(=O)O)cc1)S(=O)(=O)c1ccccc1 [Example 30, 4-[N-methyl-[2-(N-isopropyl-phenylsulfonylamino)-5-trifluoromethylphenyl]aminomethyl]benzoic acid], the Ki was 73 nM. With O=C(O)c1ccc(COc2cc(C(F)(F)F)ccc2N(C2CCCC2)S(=O)(=O)c2ccccc2)cc1 [18(30), 4-[2-(N-cyclopentyl-phenylsulfonylamino)-5-trifluoromethylphenoxymethyl]benzoic acid] the Ki was 1.6 nM. For O=C(O)c1ccc(COc2cc(Cl)ccc2CNS(=O)(=O)c2ccccc2)cc1 [Example 43, 4-(2-phenylsulfonylaminomethyl-5-chlorophenoxymethyl)benzoic acid], the Ki was 380 nM. CCN(c1ccc(C(F)(F)F)cc1OCc1ccc(/C=C/C(=O)O)cc1)S(=O)(=O)c1ccccc1 [18(102), 4-[2-(N-ethyl-phenylsulfonylamino)-5-trifluoromethylphenoxymethyl]cinnamic acid] showed a Ki of 0.2 nM. Work on O=C(O)c1ccc(COc2cc(Cl)ccc2NS(=O)(=O)c2ccccc2)nc1 [22(3), 6-(2-phenylsulfonylamino-5-chlorophenoxymethyl)nicotinic acid] yielded a Ki of 480 nM. Compound CC(C)CN(c1ccc(C(F)(F)F)cc1OCc1ccc(/C=C/C(=O)O)cc1)S(=O)(=O)c1ccco1 [18(94), 4-[2-(N-isobutyl-2-furanylsulfonylamino)-5-trifluoromethylphenoxymethyl]cinnamic acid] has a Ki of 0.4 nM. For CC(C)N(c1ccc(Cl)cc1OCc1ccc(C(=O)O)o1)S(=O)(=O)c1ccccc1 [24(9), 5-[2-(N-isopropyl-phenylsulfonylamino)-5-chlorophenoxymethyl]furan-2-carboxylic acid], the Ki was 18 nM. In the case of CC(C)N(c1ccc(C(F)(F)F)cc1OCc1ccc(OCC(=O)O)cc1)S(=O)(=O)c1ccccc1 [Example 24, 4-[2-(N-isopropyl-phenylsulfonylamino)-5-trifluoromethylphenoxymethyl]phenoxy acetic acid], the Ki is reported as 5.8 nM. For O=C(O)c1ccc(NC(=O)c2cc(Br)ccc2NS(=O)(=O)c2ccc(Cl)cc2)cc1 [2(k), 4-[2-(4-chlorophenylsulfonylamino)-5-bromobenzoylamino]benzoic acid], the Ki was 99 nM. For Cc1ccc(N(C(C)C)S(=O)(=O)CC2CCCC2)c(OCc2ccc(C(=O)O)cc2)c1 [20(20), 4-[2-(N-isopropyl-cyclopentylmethylsulfonylamino)-5-methylphenoxymethyl]benzoic acid], the Ki was 9.9 nM. CC(C)N(c1ccc(C(F)(F)F)cc1OCc1ccc(C#CC(=O)O)cc1)S(=O)(=O)c1ccccc1 [Example 44, 4-[2-(N-isopropyl-phenylsulfonylamino)-5-trifluoromethylphenoxymethyl]phenylpropiolic acid] showed a Ki of 1.3 nM. For CC(C)N(c1ccc(C(F)(F)F)cc1OC[C@H]1CC[C@H](C(=O)O)CC1)S(=O)(=O)c1ccccc1 [18(38), trans-4-[2-(N-isopropyl-phenylsulfonylamino)-5-trifluoromethylphenoxymethyl]cyclohexanoic acid], the Ki was 16 nM. With CCCS(=O)(=O)N(Cc1ccccc1)c1ccc(C)cc1OCc1ccc(C(=O)O)cc1 [18(75), 4-[2-(N-benzyl-propylsulfonylamino)-5-methylphenoxymethyl]benzoic acid] the Ki was 5.4 nM. Compound CC(C)N(c1ccc(Cl)cc1OCc1ccc(C(=O)O)cc1)S(=O)(=O)c1cccs1 [18(58), 4-[2-(N-isopropyl-2-thienylsulfonylamino)-5-chlorophenoxymethyl]benzoic acid] has a Ki of 6.2 nM. In the case of CC(C)N(c1ccc(C(F)(F)F)cc1/C=C/c1ccc(C(=O)O)cc1)S(=O)(=O)c1ccccc1 [Example 48, 4-[2-[2-(N-isopropyl-phenylsulfonylamino)-5-trifluoromethylphenyl]-(E)-vinyl]benzoic acid], the Ki is reported as 10 nM. Compound O=C(O)c1ccc(COc2ncc(C(F)(F)F)cc2NS(=O)(=O)c2ccccc2)cc1 [Example 38, 4-(3-phenylsulfonylamino-5-trifluoromethylpyridine-2-yloxymethyl)benzoic acid] has a Ki of 160 nM.
